According to ChEMBL document CHEMBL1795340, “A discovery of novel Mycobacterium tuberculosis pantothenate synthetase inhibitors based on the molecular mechanism of actinomycin D inhibition” (Bioorg Med Chem Lett, 2011):
Values after ≈ are worked out from the molar mass of the structure shown. Counter-ions that a name gives are not always drawn. Numbered stars: 1 amine (or outer) side, 2 acyl side, 3 side chain; on linkers, the order of the positions; unused ones are H or OH. Bridge positions count the residues as written; N and C are the ends. Square brackets hold non-standard residues; d marks the D form. Peptide text beside a SMILES is read from it. I, II: the chains in the order shown. Actinocin(9to1) = Cc1c2oc3c(C)ccc(C(=O)[*:1])c3nc-2c(C(=O)[*:2])c(N)c1=O; NMeV = CN[C@H](C(=O)O)C(C)C; Sar = CNCC(=O)O

Legend:
Pantothenate synthetase [1] = target: T1, Pantothenate synthetase (Mycobacterium tuberculosis, UniProt P9WIL5); assay: Inhibition of Mycobacterium tuberculosis pantothenate synthetase by high throughput screening method
T1 sequence (P9WIL5 whole entry): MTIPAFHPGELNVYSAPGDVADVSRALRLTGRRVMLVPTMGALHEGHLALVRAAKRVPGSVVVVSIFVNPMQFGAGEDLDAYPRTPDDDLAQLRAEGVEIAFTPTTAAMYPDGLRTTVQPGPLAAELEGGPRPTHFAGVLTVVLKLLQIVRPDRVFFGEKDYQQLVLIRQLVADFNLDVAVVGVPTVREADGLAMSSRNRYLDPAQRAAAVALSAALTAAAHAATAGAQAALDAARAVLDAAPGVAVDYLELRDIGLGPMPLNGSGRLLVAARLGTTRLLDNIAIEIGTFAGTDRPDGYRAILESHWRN

[2] = target: T2, Pantothenate synthetase (Mycobacterium tuberculosis) (UniProt P9WIL5); assay: Inhibition of Mycobacterium tuberculosis pantothenate synthetase at 50 uM by high throughput screening method relative to control
T2 sequence (whole entry): T1 sequence (P9WIL5 whole entry)

Pantothenate synthetase [3] = target: T1, Pantothenate synthetase; assay: Competitive inhibition of Mycobacterium tuberculosis pantothenate synthetase using beta-alanine by Dixon plot analysis
[4] = test system: Mycobacterium tuberculosis; assay: Antimycobacterial activity against Mycobacterium tuberculosis H37Rv; format: functional
Pantothenate synthetase [5] = target: T1, Pantothenate synthetase; assay: Competitive inhibition of Mycobacterium tuberculosis pantothenate synthetase using ATP by Dixon plot analysis

Row | SMILES | IC50 (Pantothenate synthetase [1]) [µM] | inhibition [2] [%] | Ki (Pantothenate synthetase [3]) [µM] | MIC [4] [µM] | Ki (Pantothenate synthetase [5]) [µM]
1 | CCN(CC)CCOC(=O)C(Cc1cccc2ccccc12)CC1CCCO1 (stereo not drawn) [NAFRONYL OXALATE] | 398 |  |  |  | 
2 | C=C/C=C/C=C/c1cccc(NNC(=O)CCC(=O)O)c1 |  | 27.1 |  |  | 
3 | COC(=O)c1cc2c(OCc3ccccc3)cc(N)cc2[nH]1 | 22.4 | 69.4 | 19.7 | 54 (≈ 16 µg/mL) | 1.4
4 | Cc1c2oc3c(C)ccc(C(=O)N[C@@H]4C(=O)N[C@H](C(C)C)C(=O)N5CCC[C@H]5C(=O)N(C)CC(=O)N(C)[C@@H](C(C)C)C(=O)O[C@@H]4C)c3nc-2c(C(=O)N[C@@H]2C(=O)N[C@H](C(C)C)C(=O)N3CCC[C@H]3C(=O)N(C)CC(=O)N(C)[C@@H](C(C)C)C(=O)O[C@@H]2C)c(N)c1=O [DACTINOMYCIN] (I: T[dV]P[Sar][NMeV] / II: T[dV]P[Sar][NMeV]; ester I:1-I:C, II:1-II:C; linker I:N-II:N via Actinocin(9to1)) | 251 |  |  |  | 
